Laboratory results published in ChEMBL document CHEMBL4421728, “Bach1 Inhibitors in Combination with Nrf2 Activators and Pharmaceutical Compositions Thereof” (2017).

Columns and labels:
[1] = molecular target: T1, Transcription regulator protein BACH1 (Homo sapiens) (UniProt O14867); test: Inhibition of Bach1 in normal human lung fibroblasts assessed as induction of HMOX protein expression at 0.078 uM incubated for 16 to 18 hrs in presence of 0.0024 uM Nrf2 activator Bardoxolone methyl by immunostaining relative to control
T1 sequence (whole entry): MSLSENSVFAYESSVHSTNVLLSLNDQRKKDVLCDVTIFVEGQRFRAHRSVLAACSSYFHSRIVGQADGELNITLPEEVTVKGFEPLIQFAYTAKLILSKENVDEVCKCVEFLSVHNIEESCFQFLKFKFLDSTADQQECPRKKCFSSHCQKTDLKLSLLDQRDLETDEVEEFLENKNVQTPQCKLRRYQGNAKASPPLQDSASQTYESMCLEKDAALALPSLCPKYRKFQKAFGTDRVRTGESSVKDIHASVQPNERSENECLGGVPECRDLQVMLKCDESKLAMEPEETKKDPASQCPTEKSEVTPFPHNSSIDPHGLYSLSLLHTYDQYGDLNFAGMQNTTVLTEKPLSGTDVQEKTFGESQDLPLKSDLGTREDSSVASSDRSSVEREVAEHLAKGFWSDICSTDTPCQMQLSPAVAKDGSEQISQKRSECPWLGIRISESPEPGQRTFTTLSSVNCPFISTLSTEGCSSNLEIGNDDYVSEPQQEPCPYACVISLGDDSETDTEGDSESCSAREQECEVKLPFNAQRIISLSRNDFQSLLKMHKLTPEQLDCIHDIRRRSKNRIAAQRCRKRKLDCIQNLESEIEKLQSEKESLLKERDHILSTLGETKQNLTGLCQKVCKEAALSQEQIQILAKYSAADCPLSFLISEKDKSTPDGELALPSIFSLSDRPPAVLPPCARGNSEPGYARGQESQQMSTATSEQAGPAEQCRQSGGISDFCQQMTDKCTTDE

[2] = molecular target: T1, Transcription regulator protein BACH1 (Homo sapiens); test: Inhibition of Bach1 in normal human lung fibroblasts assessed as induction of HMOX protein expression at 0.625 uM incubated for 16 to 18 hrs in presence of 0.0024 uM Nrf2 activator Bardoxolone methyl by immunostaining relative to control
[3] = molecular target: T1, Transcription regulator protein BACH1 (Homo sapiens); test: Inhibition of Bach1 in normal human lung fibroblasts assessed as induction of HMOX protein expression at 1.25 uM incubated for 16 to 18 hrs in presence of 0.0024 uM Nrf2 activator Bardoxolone methyl by immunostaining relative to control
[4] = molecular target: T1, Transcription regulator protein BACH1 (Homo sapiens); test: Inhibition of Bach1 in normal human lung fibroblasts assessed as induction of HMOX protein expression at 2.5 uM incubated for 16 to 18 hrs in presence of 0.0024 uM Nrf2 activator Bardoxolone methyl by immunostaining relative to control
[5] = molecular target: T1, Transcription regulator protein BACH1 (Homo sapiens); test: Inhibition of Bach1 in normal human lung fibroblasts assessed as induction of HMOX protein expression at 0.039 uM incubated for 16 to 18 hrs in presence of 0.0048 uM Nrf2 activator Bardoxolone methyl by immunostaining relative to control
[6] = molecular target: T1, Transcription regulator protein BACH1 (Homo sapiens); test: Inhibition of Bach1 in normal human lung fibroblasts assessed as induction of HMOX protein expression at 0.312 uM incubated for 16 to 18 hrs in presence of 0.0048 uM Nrf2 activator Bardoxolone methyl by immunostaining relative to control
[7] = molecular target: T1, Transcription regulator protein BACH1 (Homo sapiens); test: Inhibition of Bach1 in normal human lung fibroblasts assessed as induction of HMOX protein expression at 0.625 uM incubated for 16 to 18 hrs in presence of 0.0048 uM Nrf2 activator Bardoxolone methyl by immunostaining relative to control
[8] = molecular target: T1, Transcription regulator protein BACH1 (Homo sapiens); test: Inhibition of Bach1 in normal human lung fibroblasts assessed as induction of HMOX protein expression at 2.5 uM incubated for 16 to 18 hrs in presence of 0.0048 uM Nrf2 activator Bardoxolone methyl by immunostaining relative to control
[9] = molecular target: T1, Transcription regulator protein BACH1 (Homo sapiens); test: Inhibition of Bach1 in normal human lung fibroblasts assessed as induction of HMOX protein expression at 0.156 uM incubated for 16 to 18 hrs in presence of 0.0097 uM Nrf2 activator Bardoxolone methyl by immunostaining relative to control
[10] = molecular target: T1, Transcription regulator protein BACH1 (Homo sapiens); test: Inhibition of Bach1 in normal human lung fibroblasts assessed as induction of HMOX protein expression at 0.312 uM incubated for 16 to 18 hrs in presence of 0.0097 uM Nrf2 activator Bardoxolone methyl by immunostaining relative to control
[11] = molecular target: T1, Transcription regulator protein BACH1 (Homo sapiens); test: Inhibition of Bach1 in normal human lung fibroblasts assessed as induction of HMOX protein expression at 0.312 uM incubated for 16 to 18 hrs in presence of 0.019 uM Nrf2 activator Bardoxolone methyl by immunostaining relative to control
[12] = molecular target: T1, Transcription regulator protein BACH1 (Homo sapiens); test: Inhibition of Bach1 in normal human lung fibroblasts assessed as induction of HMOX protein expression at 0.625 uM incubated for 16 to 18 hrs in presence of 0.019 uM Nrf2 activator Bardoxolone methyl by immunostaining relative to control
[13] = molecular target: T1, Transcription regulator protein BACH1 (Homo sapiens); test: Inhibition of Bach1 in normal human lung fibroblasts assessed as induction of HMOX protein expression at 2.5 uM incubated for 16 to 18 hrs in presence of 0.019 uM Nrf2 activator Bardoxolone methyl by immunostaining relative to control
[14] = molecular target: T1, Transcription regulator protein BACH1 (Homo sapiens); test: Inhibition of Bach1 in normal human lung fibroblasts assessed as induction of HMOX protein expression at 0.078 uM incubated for 16 to 18 hrs in presence of 0.039 uM Nrf2 activator Bardoxolone methyl by immunostaining relative to control
[15] = molecular target: T1, Transcription regulator protein BACH1 (Homo sapiens); test: Inhibition of Bach1 in normal human lung fibroblasts assessed as induction of HMOX protein expression at 0.625 uM incubated for 16 to 18 hrs in presence of 0.039 uM Nrf2 activator Bardoxolone methyl by immunostaining relative to control
[16] = molecular target: T1, Transcription regulator protein BACH1 (Homo sapiens); test: Inhibition of Bach1 in normal human lung fibroblasts assessed as induction of HMOX protein expression at 1.25 uM incubated for 16 to 18 hrs in presence of 0.039 uM Nrf2 activator Bardoxolone methyl by immunostaining relative to control
[17] = molecular target: T1, Transcription regulator protein BACH1 (Homo sapiens); test: Inhibition of Bach1 in normal human lung fibroblasts assessed as induction of HMOX protein expression at 1.25 uM incubated for 16 to 18 hrs in presence of 0.078 uM Nrf2 activator Bardoxolone methyl by immunostaining relative to control
[18] = molecular target: T1, Transcription regulator protein BACH1 (Homo sapiens); test: Inhibition of Bach1 in normal human lung fibroblasts assessed as induction of HMOX protein expression at 0.078 uM incubated for 16 to 18 hrs in presence of 0.312 uM Nrf2 activator Bardoxolone methyl by immunostaining relative to control
[19] = molecular target: T1, Transcription regulator protein BACH1 (Homo sapiens); test: Inhibition of Bach1 in normal human lung fibroblasts assessed as induction of HMOX protein expression at 1.25 uM incubated for 16 to 18 hrs in presence of 0.312 uM Nrf2 activator Bardoxolone methyl by immunostaining relative to control
[20] = molecular target: T1, Transcription regulator protein BACH1 (Homo sapiens); test: Inhibition of Bach1 in normal human lung fibroblasts assessed as induction of HMOX protein expression at 2.5 uM incubated for 16 to 18 hrs in presence of 0.312 uM Nrf2 activator Bardoxolone methyl by immunostaining relative to control

fold change (FC) [1]: 4.25
fold change (FC) [2]: 15.7
fold change (FC) [3]: 16.1
fold change (FC) [4]: 18.8
fold change (FC) [5]: 3.04
fold change (FC) [6]: 13.6
fold change (FC) [7]: 17.1
fold change (FC) [8]: 19.5
fold change (FC) [9]: 12.1
fold change (FC) [10]: 16.4
fold change (FC) [11]: 17.7
fold change (FC) [12]: 16.8
fold change (FC) [13]: 17
fold change (FC) [14]: 17.8
fold change (FC) [15]: 17.2
fold change (FC) [16]: 15.6
fold change (FC) [17]: 15.2
fold change (FC) [18]: 15.3
fold change (FC) [19]: 10.5
fold change (FC) [20]: 10
SMILES: CNC(=O)c1ccc2c(c1)nc(Nc1nc3ccc(OC(F)(F)F)cc3s1)n2C
